According to patent US12358885B2, “Substituted n-propylamine fused heterocyclic mescaline derivatives” (Enveric Biosciences Canada Inc., priority 2022, dated 2025):

Legend:
5-HT7 receptor = biological target: T1, 5-HT7 receptor (Homo sapiens, UniProt P34969); experiment: Eurofins Cerep competition binding assay at 5-HT7 receptor; conditions: 10 μM test ligand; [3H]LSD; recombinant receptor in HEK-293 cells; read-out: HT7, percent of control-specific binding
T1 construct: host or cells: HEK-293 cells (membrane preparation)
T1 sequence (P34969 whole entry): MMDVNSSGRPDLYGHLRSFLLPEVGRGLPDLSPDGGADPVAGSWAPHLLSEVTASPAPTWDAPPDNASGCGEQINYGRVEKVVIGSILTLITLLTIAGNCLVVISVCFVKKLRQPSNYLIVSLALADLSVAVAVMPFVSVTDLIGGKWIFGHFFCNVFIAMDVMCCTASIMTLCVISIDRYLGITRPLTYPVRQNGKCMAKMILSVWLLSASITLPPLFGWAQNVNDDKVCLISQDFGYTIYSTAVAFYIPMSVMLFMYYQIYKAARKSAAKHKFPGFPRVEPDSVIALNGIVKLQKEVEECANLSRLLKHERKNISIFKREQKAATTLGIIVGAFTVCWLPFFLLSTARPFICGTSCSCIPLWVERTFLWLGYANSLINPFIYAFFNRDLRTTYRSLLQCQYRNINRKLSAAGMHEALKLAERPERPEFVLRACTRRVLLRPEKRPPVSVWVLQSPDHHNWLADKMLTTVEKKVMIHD

[1] = biological target: T2, dopamine transporter (DAT) (Homo sapiens, UniProt Q01959); experiment: Eurofins Cerep competition binding assay at dopamine transporter; conditions: read-out: DAT, percent of control-specific binding
T2 construct: host or cells: CHO cells (membrane preparation)
T2 sequence (Q01959 whole entry): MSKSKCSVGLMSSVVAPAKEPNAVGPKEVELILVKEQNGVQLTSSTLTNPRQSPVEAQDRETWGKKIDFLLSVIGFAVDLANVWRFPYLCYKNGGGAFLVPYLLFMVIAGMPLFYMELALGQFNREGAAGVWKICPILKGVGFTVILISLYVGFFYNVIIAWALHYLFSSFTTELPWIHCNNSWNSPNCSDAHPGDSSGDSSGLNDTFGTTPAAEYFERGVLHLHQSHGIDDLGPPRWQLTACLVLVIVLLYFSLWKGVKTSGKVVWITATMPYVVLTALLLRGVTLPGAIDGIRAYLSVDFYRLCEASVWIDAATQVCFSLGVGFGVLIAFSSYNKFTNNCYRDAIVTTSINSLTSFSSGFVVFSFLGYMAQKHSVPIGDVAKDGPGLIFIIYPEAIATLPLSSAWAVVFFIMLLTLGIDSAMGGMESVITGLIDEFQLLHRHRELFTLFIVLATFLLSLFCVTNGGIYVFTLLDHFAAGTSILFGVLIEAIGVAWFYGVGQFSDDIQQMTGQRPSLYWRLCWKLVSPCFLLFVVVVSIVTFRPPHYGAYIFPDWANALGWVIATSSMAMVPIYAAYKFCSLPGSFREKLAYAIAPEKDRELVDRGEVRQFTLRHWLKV

5-HT2C receptor = biological target: T3, 5-HT2C receptor (Homo sapiens, UniProt P28335); experiment: Eurofins Cerep competition binding assay at 5-HT2C receptor; conditions: 10 μM test ligand; [125I](±)DOI; recombinant receptor in HEK-293 cells; read-out: HT2C, percent of control-specific binding
T3 construct: host or cells: HEK-293 cells (membrane preparation)
T3 sequence (P28335 33-458): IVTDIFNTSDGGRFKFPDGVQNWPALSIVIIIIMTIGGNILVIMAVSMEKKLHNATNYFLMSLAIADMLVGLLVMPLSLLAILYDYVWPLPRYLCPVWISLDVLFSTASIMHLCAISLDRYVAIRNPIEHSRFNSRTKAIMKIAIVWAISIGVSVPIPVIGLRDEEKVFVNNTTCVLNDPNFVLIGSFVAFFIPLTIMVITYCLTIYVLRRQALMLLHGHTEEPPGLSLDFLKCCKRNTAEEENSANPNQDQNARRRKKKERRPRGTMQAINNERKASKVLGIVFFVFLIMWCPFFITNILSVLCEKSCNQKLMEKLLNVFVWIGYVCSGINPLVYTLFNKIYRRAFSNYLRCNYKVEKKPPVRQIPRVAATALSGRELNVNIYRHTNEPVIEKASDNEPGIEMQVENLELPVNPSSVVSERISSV

5-HT1A receptor [2] = biological target: T4, 5-HT1A receptor (Homo sapiens, UniProt P08908); experiment: Eurofins Cerep competition binding assay at 5-HT1A receptor; conditions: 10 μM test ligand; [3H]8-OH-DPAT; recombinant receptor in HEK-293 cells; read-out: HT1A, percent of control-specific binding
T4 construct: purchased Perkin Elmer 6110501400UA
T4 sequence (P08908 1-422): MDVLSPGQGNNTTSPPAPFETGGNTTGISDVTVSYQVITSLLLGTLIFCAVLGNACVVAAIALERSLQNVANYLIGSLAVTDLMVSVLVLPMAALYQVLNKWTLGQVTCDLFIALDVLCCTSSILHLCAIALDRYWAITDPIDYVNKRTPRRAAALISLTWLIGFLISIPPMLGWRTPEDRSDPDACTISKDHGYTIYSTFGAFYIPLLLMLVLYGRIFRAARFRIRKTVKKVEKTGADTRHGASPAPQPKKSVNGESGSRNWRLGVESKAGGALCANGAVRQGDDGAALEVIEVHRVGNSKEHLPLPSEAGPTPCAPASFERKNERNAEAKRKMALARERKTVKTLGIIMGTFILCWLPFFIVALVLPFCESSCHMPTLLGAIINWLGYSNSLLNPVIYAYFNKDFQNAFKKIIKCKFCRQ

MT1 receptor = biological target: T5, MT1 receptor (Homo sapiens, UniProt P48039); experiment: Eurofins Cerep competition binding assay at MT1 receptor; conditions: read-out: MT1, percent of control-specific binding
T5 construct: host or cells: CHO cells (membrane preparation)
T5 sequence (P48039 whole entry): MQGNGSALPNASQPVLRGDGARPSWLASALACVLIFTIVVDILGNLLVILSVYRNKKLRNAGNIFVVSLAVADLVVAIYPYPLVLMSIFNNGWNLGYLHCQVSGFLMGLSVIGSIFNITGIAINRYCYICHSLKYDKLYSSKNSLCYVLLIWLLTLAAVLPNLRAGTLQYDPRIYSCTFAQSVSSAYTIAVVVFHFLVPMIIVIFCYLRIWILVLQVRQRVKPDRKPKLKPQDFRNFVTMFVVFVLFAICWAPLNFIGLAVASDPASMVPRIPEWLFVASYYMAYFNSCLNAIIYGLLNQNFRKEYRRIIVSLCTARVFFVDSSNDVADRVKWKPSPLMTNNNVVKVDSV

D3 receptor = biological target: T6, D3 receptor (Homo sapiens, UniProt P35462); experiment: Eurofins Cerep competition binding assay at D3 receptor; conditions: 10 μM test ligand; [3H]methylspiperone; recombinant receptor in CHO cells; read-out: D3, percent of control-specific binding
T6 construct: host or cells: CHO cells (membrane preparation)
T6 sequence (P35462 whole entry): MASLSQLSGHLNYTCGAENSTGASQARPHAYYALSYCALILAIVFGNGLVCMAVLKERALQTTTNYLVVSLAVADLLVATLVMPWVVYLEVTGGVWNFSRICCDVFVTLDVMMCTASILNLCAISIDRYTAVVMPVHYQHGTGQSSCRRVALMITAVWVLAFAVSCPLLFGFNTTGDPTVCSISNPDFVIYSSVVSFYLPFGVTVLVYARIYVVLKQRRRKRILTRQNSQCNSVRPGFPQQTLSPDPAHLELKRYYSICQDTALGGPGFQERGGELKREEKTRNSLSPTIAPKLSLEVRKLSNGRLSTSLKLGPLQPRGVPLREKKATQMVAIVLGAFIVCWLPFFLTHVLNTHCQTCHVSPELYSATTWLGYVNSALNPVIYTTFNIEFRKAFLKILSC

5-HT2A receptor = biological target: T7, 5-HT2A receptor (Homo sapiens, UniProt P28223); experiment: biochemical; assay type: binding; conditions: 10 μM test molecule; [125I](±)DOI; recombinant receptor in HEK-293 cells; read-out: HT2A, percent of control-specific binding
T7 construct: host or cells: HEK-293 cells (membrane preparation)
T7 sequence (P28223 whole entry): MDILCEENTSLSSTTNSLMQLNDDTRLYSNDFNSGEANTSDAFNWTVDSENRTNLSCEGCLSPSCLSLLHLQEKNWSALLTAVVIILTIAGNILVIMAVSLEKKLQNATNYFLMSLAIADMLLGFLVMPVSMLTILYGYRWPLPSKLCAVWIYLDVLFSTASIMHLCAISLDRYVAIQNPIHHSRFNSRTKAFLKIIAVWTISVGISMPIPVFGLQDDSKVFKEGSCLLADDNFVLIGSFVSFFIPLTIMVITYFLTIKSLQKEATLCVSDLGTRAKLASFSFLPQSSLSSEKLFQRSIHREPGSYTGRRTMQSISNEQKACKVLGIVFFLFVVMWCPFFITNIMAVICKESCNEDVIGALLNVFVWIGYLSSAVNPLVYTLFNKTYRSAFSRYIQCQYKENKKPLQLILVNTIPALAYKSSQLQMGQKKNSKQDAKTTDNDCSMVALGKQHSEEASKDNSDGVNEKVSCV

5-HT1A receptor [3] = biological target: T4, 5-HT1A receptor; experiment: 5-HT1A receptor radioligand competition assay (SPA, 8-hydroxy-DPAT [3H]); assay type: binding; conditions: 0.5 nM hot 8-hydroxy-DPAT, membranes containing 5-HT1A
alpha2A receptor = biological target: T8, alpha2A receptor (Homo sapiens, UniProt P08913); experiment: Eurofins Cerep competition binding assay at alpha2A receptor; conditions: 10 μM test ligand; [3H]RX 821002; recombinant receptor in CHO cells
T8 construct: host or cells: CHO cells (membrane preparation)
T8 sequence (P08913 1-465): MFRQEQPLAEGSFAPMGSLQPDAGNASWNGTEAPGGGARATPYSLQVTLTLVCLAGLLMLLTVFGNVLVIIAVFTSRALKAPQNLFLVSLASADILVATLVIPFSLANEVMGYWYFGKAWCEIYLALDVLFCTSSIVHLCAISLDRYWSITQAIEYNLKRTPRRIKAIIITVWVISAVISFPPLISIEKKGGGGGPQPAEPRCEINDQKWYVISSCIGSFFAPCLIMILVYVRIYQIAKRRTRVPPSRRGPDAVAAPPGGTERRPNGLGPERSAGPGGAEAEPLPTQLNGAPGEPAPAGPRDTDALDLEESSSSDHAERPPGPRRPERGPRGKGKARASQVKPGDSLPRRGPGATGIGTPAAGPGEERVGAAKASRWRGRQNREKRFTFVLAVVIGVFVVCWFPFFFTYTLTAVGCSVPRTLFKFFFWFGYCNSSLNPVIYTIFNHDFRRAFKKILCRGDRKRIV

5-HT2B receptor = biological target: T9, 5-HT2B receptor (Homo sapiens, UniProt P41595); experiment: Eurofins Cerep competition binding assay at 5-HT2B receptor; conditions: 10 μM test ligand; [3H]mesulergine; recombinant receptor in CHO cells; read-out: HT2B, percent of control-specific binding
T9 construct: host or cells: CHO cells (membrane preparation)
T9 sequence (P41595 whole entry): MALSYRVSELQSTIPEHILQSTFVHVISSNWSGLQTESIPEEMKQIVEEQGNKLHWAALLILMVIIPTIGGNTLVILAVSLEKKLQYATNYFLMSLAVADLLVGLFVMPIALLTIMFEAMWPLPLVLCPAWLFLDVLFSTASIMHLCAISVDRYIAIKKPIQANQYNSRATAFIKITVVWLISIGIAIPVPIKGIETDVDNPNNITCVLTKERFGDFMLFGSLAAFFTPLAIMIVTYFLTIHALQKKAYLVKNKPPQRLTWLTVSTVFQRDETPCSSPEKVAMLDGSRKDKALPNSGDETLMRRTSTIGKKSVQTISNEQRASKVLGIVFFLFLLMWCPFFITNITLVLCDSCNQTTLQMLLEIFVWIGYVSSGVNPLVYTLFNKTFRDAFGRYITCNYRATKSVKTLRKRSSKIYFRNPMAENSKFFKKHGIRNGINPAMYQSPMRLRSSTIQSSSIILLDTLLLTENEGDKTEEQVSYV

[4] = biological target: T10, norepinephrine transporter (NET) (Homo sapiens, UniProt P23975); experiment: Eurofins Cerep competition binding assay at norepinephrine transporter; conditions: read-out: NET, percent of control-specific binding
T10 construct: host or cells: CHO cells (membrane preparation)
T10 sequence (P23975 whole entry): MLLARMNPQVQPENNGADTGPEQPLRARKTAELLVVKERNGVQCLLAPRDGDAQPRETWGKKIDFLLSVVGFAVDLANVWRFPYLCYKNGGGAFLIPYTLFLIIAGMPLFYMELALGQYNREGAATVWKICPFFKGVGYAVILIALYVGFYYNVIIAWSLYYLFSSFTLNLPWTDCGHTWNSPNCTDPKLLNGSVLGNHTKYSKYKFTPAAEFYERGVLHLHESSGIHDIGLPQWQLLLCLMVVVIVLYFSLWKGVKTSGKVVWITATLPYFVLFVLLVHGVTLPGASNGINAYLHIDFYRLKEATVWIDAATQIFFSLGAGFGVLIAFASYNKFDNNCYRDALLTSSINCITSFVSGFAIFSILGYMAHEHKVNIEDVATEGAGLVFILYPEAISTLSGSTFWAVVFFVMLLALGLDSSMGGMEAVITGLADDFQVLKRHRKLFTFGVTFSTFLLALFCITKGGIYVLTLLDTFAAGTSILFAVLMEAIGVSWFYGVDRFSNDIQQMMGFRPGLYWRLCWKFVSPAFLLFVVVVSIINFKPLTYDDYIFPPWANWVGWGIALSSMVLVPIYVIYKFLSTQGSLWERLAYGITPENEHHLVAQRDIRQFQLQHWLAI

[5] = biological target: T11, serotonin transporter (SERT) (Homo sapiens, UniProt P31645); experiment: biochemical; assay type: binding; conditions: read-out: SERT, percent of control-specific binding
T11 construct: host or cells: CHO cells (membrane preparation)
T11 sequence (P31645 whole entry): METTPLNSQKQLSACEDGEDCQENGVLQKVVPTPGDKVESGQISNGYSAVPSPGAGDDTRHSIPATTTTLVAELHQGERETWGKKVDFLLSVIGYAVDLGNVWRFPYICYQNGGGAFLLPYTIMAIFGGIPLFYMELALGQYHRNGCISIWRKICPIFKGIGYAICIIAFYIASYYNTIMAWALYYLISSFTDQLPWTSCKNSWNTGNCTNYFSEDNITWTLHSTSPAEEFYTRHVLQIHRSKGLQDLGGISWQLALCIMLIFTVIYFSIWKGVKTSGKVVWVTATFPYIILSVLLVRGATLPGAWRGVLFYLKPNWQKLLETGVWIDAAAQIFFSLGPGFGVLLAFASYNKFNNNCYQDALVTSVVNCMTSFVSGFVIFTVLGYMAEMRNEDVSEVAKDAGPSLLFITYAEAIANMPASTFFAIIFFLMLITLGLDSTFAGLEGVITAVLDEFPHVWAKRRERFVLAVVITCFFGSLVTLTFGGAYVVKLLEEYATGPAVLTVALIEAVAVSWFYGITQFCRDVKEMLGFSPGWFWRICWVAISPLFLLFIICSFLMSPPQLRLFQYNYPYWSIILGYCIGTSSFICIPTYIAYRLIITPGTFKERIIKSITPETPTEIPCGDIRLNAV

5-HT1A receptor [6] = biological target: T4, 5-HT1A receptor; experiment: Functional 5-HT1A receptor cAMP assay in CHO-K1/5-HT1A/Gα15 cells; assay type: cell-based

Row | Compound | inhibition at 10 µM (D3 receptor) [%] | inhibition at 10 µM (5-HT2A receptor) [%] | α-2A, percent of control-specific binding (alpha2A receptor) [%] | further results
1 | O=C(CCc1cc2c(cc1Br)OCO2)N1CCCC1 [F(IV)] | 12 | 0 | 4 | inhibition at 10 µM (5-HT7 receptor): 0%; inhibition at 10 µM [1]: 0%; inhibition at 10 µM (5-HT2C receptor): 8%; inhibition at 10 µM (5-HT1A receptor [2]): 37%; inhibition at 10 µM (MT1 receptor): 42%; Ki (5-HT1A receptor [3]): 84.5 µM; inhibition at 10 µM (5-HT2B receptor): 26%; inhibition at 10 µM [4]: 0%; inhibition at 10 µM [5]: 0%
2 | COc1cc2c(cc1CCC(=O)N1CCCC1)OCO2 [F(V)] | – | – | – | EC50 (5-HT1A receptor [6]): 10 µM; Ki (5-HT1A receptor [3]): 364 µM
3 | Brc1cc2c(cc1CCC1=NCCO1)OCO2 [G(V)] | – | – | – | EC50 (5-HT1A receptor [6]): 130 µM
4 | CN(C)CCCN1c2ccccc2CCc2ccccc21 [Imipramine] | 92 | 97 | 57 | –
5 | COc1ccc2[nH]cc(CCNC(C)=O)c2c1 [Melatonin] | 2 | – | −7 | –
6 | O=c1n(CCCN2CCN(c3cccc(Cl)c3)CC2)nc2ccccn12 [Trazodone] | 89 | – | 91 | –
7 | N#Cc1ccc2[nH]cc(CCCCN3CCN(c4ccc5oc(C(N)=O)cc5c4)CC3)c2c1 [Vilazodone] | 99 | 94 | 65 | –
8 | COc1cc(CCN)cc(OC)c1OC [mescaline, 3,4,5 trimethoxyphenethylamine] | -13 | 79 | 57 | –
9 | CCCOc1c(OC)cc(CCN)cc1OC [proscaline] | 4 | 91 | 40 | –
10 | NCCc1c[nH]c2ccc(O)cc12 [serotonin] | 73 | – | 18 | –
11 | N[C@@H](Cc1c[nH]c2ccccc12)C(=O)O [tryptophan] | -23 | -1 | −4 | –
12 | Cc1ccc(Sc2ccccc2N2CCNCC2)c(C)c1 [vortioxetine] | 88 | 90 | 62 | –
